Earlier results as cited in patent publication US5545620A, “Synthetic fibronectin fragments as inhibitors of retroviral infection” (priority 1994, dated 1996).

Test system: cell adhesion
Details: cited from earlier work

| Substance | promotion of cell adhesion |
| --- | --- |
| FN-6: fibronectin fragment (1961-1985) SEQ ID NO. 6, restricted to isoforms containing the type IIIcs region (DELPQLVTLPHPNLHGPEILDVPST) | promotes cell adhesion by an α4β1 integrin-dependent mechanism |
| KNNQKSEPLIGRKKT [FN-2] | promote cell adhesion |
| YEKPGSPPREWPRPRPGV (YEKPGSPPREVVPRPRPGV) [FN-1] | promote cell adhesion |
